Experimental data reported in ChEMBL document CHEMBL4715821, “Discovery of 4-ethoxy-7H-pyrrolo[2,3-d]pyrimidin-2-amines as potent, selective and orally bioavailable LRRK2 inhibitors” (Bioorg Med Chem Lett, 2018).

Assays:
[1] = molecular target: Protein kinase C theta type (Homo sapiens) (UniProt Q04759); experiment: Inhibition of PKCtheta (unknown origin) assessed as residual activity at 1 uM by Kinomescan method relative to control
[2] = molecular target: RAC-alpha serine/threonine-protein kinase (Homo sapiens) (UniProt P31749); experiment: Inhibition of wild-type human partial length AKT1 expressed in bacterial expression system assessed as residual activity at 1 uM by Kinomescan method relative to control
[3] = molecular target: Proto-oncogene tyrosine-protein kinase receptor Ret (Homo sapiens) (UniProt P07949); experiment: Inhibition of wild-type human partial length RET (E713 to D1014 residues) expressed in bacterial expression system assessed as residual activity at 1 uM by Kinomescan method relative to control
[4] = molecular target: PAS domain-containing serine/threonine-protein kinase (Homo sapiens) (UniProt Q96RG2); experiment: Inhibition of wild-type human partial length PASK (E942 to G1265 residues) expressed in mammalian expression system assessed as residual activity at 1 uM by Kinomescan method relative to control
[5] = molecular target: Homeodomain-interacting protein kinase 2 (Homo sapiens) (UniProt Q9H2X6); experiment: Inhibition of wild-type human partial length HIPK2 (M153 to S564 residues) expressed in mammalian expression system assessed as residual activity at 1 uM by Kinomescan method relative to control
[6] = molecular target: Dual specificity mitogen-activated protein kinase kinase 6 (Homo sapiens) (UniProt P52564); experiment: Inhibition of MKK6 (unknown origin) assessed as residual activity at 1 uM by Kinomescan method relative to control
[7] = molecular target: MAP/microtubule affinity-regulating kinase 4 (Homo sapiens) (UniProt Q96L34); experiment: Inhibition of wild-type human partial length MARK4 (K29 to G340 residues) expressed in bacterial expression system assessed as residual activity at 1 uM by Kinomescan method relative to control
[8] = molecular target: Insulin-like growth factor 1 receptor (Homo sapiens) (UniProt P08069); experiment: Inhibition of wild-type human partial length IGF1R (L972 to D1294 residues) expressed in bacterial expression system assessed as residual activity at 1 uM by Kinomescan method relative to control
[9] = molecular target: G protein-coupled receptor kinase 3 (Homo sapiens) (UniProt P35626); experiment: Inhibition of wild-type human full length GRK3 (M1 to L688 residues) expressed in mammalian expression system assessed as residual activity at 1 uM by Kinomescan method relative to control
[10] = molecular target: Serine/threonine-protein kinase Nek2 (Homo sapiens) (UniProt P51955); experiment: Inhibition of wild-type human partial length NEK2 (M1 to K309 residues) expressed in bacterial expression system assessed as residual activity at 1 uM by Kinomescan method relative to control
Cytochrome P450 3A4 = Cytochrome P450 3A4 (Homo sapiens, UniProt P08684); experiment: Inhibition of human CYP3A4; type: ADME
[11] = molecular target: Ribosomal protein S6 kinase beta-1 (Homo sapiens) (UniProt P23443); experiment: Inhibition of wild-type human partial length RPS6KB1 (M1 to S421 residues) expressed in mammalian expression system assessed as residual activity at 1 uM by Kinomescan method relative to control
[12] = molecular target: Serine/threonine-protein kinase haspin (Homo sapiens) (UniProt Q8TF76); experiment: Inhibition of wild-type human partial length HASPIN (I452 to K798 residues) expressed in mammalian expression system assessed as residual activity at 1 uM by Kinomescan method relative to control
[13] = molecular target: Serine/threonine-protein kinase 17A (Homo sapiens) (UniProt Q9UEE5); experiment: Inhibition of wild-type human partial length DRAK1 (R32 to E363 residues) expressed in bacterial expression system assessed as residual activity at 1 uM by Kinomescan method
[14] = molecular target: Dual specificity protein kinase CLK3 (Homo sapiens) (UniProt P49761); experiment: Inhibition of wild-type human full length CLK3 (M1 to R490 residues) expressed in bacterial expression system assessed as residual activity at 1 uM by Kinomescan method relative to control
[15] = molecular target: Glycogen synthase kinase-3 alpha (Homo sapiens) (UniProt P49840); experiment: Inhibition of wild-type human full length GSK3A (M1 to S483 residues) expressed in bacterial expression system assessed as residual activity at 1 uM by Kinomescan method relative to control
[16] = molecular target: Tyrosine-protein kinase Mer (Homo sapiens) (UniProt Q12866); experiment: Inhibition of wild-type human partial length c-MER (R557 to L884 residues) expressed in bacterial expression system assessed as residual activity at 1 uM by Kinomescan method relative to control
[17] = molecular target: Serine/threonine-protein kinase TAO2 (Homo sapiens) (UniProt Q9UL54); experiment: Inhibition of wild-type human partial length TAOK2 (M1 to A320 residues) expressed in mammalian expression system assessed as residual activity at 1 uM by Kinomescan method relative to control
[18] = molecular target: Serine/threonine-protein kinase MRCK alpha (Homo sapiens) (UniProt Q5VT25); experiment: Inhibition of wild-type human partial length MRCKA (L57 to V418 residues) expressed in bacterial expression system assessed as residual activity at 1 uM by Kinomescan method relative to control
[19] = molecular target: Casein kinase I isoform epsilon (Homo sapiens) (UniProt P49674); experiment: Inhibition of CK1epsilon (unknown origin) assessed as residual activity at 1 uM by Kinomescan method relative to control
[20] = molecular target: Serine/threonine-protein kinase tousled-like 2 (Homo sapiens) (UniProt Q86UE8); experiment: Inhibition of wild-type human partial length TLK2 (E424 to N749 residues) expressed in bacterial expression system assessed as residual activity at 1 uM by Kinomescan method relative to control
[21] = molecular target: Serine/threonine-protein kinase WNK1 (Homo sapiens) (UniProt Q9H4A3); experiment: Inhibition of wild-type human partial length WNK1 (Q194 to A490 residues) expressed in mammalian expression system assessed as residual activity at 1 uM by Kinomescan method relative to control
[22] = molecular target: Calcium/calmodulin-dependent protein kinase type 1B (Homo sapiens) (UniProt Q6P2M8); experiment: Inhibition of wild-type human partial length CAMK1B (W9 to A311 residues) expressed in mammalian expression system assessed as residual activity at 1 uM by Kinomescan method relative to control
[23] = molecular target: cGMP-dependent protein kinase 2 (Homo sapiens) (UniProt Q13237); experiment: Inhibition of wild-type human partial length PRKG2 (S422 to F762 residues) expressed in mammalian expression system assessed as residual activity at 1 uM by Kinomescan method relative to control
[24] = molecular target: Dual specificity mitogen-activated protein kinase kinase 2 (Homo sapiens) (UniProt P36507); experiment: Inhibition of wild-type human full length MEK2 (M1 to V400 residues) expressed in mammalian expression system assessed as residual activity at 1 uM by Kinomescan method relative to control
[25] = molecular target: STE20/SPS1-related proline-alanine-rich protein kinase (Homo sapiens) (UniProt Q9UEW8); experiment: Inhibition of wild-type human partial length STK39 (P43 to I357 residues) expressed in mammalian expression system assessed as residual activity at 1 uM by Kinomescan method relative to control
[26] = molecular target: G protein-coupled receptor kinase 6 (Homo sapiens) (UniProt P43250); experiment: Inhibition of GRK6 (unknown origin) assessed as residual activity at 1 uM by Kinomescan method relative to control

Sequence of Serine/threonine-protein kinase 17A (Homo sapiens) (Q9UEE5 whole entry, the tested form may be a part): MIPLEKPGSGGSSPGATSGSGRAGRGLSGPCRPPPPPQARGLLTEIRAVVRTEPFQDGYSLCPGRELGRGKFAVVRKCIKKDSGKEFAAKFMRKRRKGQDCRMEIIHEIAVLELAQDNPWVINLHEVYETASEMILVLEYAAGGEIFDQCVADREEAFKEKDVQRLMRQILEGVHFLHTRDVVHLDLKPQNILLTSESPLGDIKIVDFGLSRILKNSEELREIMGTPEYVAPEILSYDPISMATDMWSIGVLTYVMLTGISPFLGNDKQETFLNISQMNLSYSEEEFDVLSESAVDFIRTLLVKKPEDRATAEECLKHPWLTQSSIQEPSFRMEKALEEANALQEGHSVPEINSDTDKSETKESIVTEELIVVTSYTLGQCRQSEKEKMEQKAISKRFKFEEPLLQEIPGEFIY
Sequence of Dual specificity mitogen-activated protein kinase kinase 6 (Homo sapiens) (P52564 whole entry, the tested form may be a part): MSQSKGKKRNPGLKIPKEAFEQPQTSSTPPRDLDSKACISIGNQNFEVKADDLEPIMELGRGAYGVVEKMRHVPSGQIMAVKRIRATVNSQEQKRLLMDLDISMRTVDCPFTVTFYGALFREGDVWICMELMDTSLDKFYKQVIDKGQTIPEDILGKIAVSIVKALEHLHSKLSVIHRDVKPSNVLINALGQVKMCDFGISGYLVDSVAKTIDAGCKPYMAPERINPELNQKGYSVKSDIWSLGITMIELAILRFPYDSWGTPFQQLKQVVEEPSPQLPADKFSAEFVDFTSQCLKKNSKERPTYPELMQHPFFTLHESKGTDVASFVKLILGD
Sequence of Serine/threonine-protein kinase MRCK alpha (Homo sapiens) (Q5VT25 whole entry, the tested form may be a part, canonical isoform): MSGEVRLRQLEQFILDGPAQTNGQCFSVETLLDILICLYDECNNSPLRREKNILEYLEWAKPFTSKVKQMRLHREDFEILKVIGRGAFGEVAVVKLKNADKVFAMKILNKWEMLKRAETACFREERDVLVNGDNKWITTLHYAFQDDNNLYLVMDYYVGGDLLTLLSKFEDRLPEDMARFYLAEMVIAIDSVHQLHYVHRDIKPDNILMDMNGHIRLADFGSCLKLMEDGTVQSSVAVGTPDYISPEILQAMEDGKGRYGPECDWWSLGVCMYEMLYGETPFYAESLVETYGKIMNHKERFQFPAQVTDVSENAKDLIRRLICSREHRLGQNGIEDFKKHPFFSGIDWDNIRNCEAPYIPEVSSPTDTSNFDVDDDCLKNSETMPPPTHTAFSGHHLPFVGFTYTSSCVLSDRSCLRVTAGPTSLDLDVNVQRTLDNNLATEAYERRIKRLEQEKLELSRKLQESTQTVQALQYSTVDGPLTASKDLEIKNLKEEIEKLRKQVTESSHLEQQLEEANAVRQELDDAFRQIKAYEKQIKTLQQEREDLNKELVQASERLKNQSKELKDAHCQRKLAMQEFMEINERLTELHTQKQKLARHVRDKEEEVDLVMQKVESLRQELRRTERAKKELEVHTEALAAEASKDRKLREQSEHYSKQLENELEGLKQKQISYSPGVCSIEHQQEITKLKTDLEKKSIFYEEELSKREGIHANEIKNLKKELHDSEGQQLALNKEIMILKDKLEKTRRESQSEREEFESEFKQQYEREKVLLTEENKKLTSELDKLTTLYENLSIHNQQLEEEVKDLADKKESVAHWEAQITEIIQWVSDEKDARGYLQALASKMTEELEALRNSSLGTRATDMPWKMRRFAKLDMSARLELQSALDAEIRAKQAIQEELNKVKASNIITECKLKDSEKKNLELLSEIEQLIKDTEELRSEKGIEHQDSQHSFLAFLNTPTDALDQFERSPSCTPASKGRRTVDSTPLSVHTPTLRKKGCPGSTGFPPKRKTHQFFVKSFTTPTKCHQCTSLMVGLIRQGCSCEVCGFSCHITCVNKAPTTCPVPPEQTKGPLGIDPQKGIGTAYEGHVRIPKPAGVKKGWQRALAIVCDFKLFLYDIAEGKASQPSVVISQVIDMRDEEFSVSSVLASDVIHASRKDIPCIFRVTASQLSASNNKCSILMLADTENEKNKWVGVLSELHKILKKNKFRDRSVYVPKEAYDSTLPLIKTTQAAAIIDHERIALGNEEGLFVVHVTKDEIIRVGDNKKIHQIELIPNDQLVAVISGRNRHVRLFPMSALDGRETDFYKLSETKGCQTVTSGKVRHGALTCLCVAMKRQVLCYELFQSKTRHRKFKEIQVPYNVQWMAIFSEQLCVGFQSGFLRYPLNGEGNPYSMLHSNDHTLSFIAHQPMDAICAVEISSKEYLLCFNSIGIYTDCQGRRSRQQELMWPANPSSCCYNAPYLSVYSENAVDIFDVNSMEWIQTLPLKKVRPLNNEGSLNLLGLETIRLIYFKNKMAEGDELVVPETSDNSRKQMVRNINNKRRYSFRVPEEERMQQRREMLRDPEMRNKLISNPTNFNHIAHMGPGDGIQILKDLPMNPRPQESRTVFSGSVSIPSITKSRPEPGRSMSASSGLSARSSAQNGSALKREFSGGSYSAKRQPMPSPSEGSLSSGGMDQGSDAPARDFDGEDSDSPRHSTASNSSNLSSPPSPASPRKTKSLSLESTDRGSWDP
Sequence of Serine/threonine-protein kinase WNK1 (Homo sapiens) (Q9H4A3 whole entry, looked up, the tested form may be a part): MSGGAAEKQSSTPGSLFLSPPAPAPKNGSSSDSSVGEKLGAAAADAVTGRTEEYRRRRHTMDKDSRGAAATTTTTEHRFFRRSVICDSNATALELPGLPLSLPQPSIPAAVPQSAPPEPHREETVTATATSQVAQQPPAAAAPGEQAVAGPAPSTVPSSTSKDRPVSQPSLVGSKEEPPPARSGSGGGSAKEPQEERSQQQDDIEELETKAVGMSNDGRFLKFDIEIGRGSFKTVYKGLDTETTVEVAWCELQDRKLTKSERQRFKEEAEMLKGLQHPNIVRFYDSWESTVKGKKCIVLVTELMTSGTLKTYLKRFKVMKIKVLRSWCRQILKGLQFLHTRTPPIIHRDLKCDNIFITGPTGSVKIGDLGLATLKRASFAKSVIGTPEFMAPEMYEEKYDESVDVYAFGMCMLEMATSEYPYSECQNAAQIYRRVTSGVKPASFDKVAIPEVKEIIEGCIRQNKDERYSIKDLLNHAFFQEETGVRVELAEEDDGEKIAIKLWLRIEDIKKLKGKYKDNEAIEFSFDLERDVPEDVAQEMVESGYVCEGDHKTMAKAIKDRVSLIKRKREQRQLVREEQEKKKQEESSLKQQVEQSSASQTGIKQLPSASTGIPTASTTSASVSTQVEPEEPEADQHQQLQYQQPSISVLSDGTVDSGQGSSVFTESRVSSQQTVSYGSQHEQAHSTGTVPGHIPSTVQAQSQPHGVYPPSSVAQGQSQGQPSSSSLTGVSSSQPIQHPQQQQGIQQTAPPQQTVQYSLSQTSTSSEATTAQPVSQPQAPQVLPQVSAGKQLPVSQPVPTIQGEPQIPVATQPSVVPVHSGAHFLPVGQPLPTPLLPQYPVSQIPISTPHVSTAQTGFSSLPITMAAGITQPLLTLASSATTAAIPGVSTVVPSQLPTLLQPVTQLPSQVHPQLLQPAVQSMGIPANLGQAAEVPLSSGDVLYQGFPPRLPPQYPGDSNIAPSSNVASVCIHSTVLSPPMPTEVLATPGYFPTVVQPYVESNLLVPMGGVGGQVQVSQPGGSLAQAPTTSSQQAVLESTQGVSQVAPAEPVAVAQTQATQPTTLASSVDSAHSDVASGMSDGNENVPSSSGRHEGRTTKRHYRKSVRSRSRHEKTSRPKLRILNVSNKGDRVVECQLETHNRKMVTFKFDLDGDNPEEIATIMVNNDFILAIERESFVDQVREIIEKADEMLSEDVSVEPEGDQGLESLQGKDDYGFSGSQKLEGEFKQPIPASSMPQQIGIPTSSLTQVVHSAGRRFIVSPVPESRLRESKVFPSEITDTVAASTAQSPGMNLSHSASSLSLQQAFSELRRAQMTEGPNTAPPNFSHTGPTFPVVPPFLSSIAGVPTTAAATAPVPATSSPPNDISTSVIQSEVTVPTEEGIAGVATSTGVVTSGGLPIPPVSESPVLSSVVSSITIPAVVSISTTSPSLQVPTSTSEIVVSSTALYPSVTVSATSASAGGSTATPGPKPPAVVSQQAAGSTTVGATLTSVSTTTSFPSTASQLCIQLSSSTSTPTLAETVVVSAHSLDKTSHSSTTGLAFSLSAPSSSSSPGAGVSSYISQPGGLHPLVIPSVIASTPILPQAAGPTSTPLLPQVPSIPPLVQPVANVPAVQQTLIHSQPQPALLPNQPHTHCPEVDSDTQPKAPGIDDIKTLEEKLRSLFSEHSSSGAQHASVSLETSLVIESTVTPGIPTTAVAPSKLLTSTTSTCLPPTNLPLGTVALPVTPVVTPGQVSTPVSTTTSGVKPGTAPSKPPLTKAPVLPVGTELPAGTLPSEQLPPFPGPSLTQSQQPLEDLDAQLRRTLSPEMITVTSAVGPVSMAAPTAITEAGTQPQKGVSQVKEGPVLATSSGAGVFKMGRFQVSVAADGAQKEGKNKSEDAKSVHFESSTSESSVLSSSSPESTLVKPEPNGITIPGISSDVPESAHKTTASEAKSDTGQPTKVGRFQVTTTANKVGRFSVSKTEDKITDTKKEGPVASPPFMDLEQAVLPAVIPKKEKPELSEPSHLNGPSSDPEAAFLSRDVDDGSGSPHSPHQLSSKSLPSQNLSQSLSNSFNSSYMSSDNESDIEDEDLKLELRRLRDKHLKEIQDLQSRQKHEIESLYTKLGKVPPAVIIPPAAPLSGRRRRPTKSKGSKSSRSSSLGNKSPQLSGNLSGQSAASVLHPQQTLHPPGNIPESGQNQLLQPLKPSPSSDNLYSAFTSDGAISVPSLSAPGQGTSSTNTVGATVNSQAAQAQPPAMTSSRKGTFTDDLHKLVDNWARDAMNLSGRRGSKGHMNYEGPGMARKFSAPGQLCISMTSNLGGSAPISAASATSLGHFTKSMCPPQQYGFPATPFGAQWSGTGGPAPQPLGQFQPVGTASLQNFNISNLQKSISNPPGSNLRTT

For `CCOc1nc(Nc2ccc(C(=O)N3CCOCC3)cc2OC)nc2[nH]ccc12`, the Activity [1] was 83.7%, the Activity [2] was 104% and the Activity [3] was 101%. The Activity [4] was 98.4%, the Activity [5] was 100% and the Activity [6] was 63.1%. The Activity [7] was 101%, the Activity [8] was 45.4% and the Activity [9] was 97.2%. The Activity [10] was 96.1%, the IC50 (Cytochrome P450 3A4) was 158 µM and the Activity [11] was 104%. For the same compound, the Activity [12] was 89.5%, the Activity [13] was 97.9% and the Activity [14] was 90.1%. The Activity [15] was 87.8%, the Activity [16] was 97% and the Activity [17] was 103%. The Activity [18] was 99.4%, the Activity [19] was 69.6% and the Activity [20] was 92.5%. The Activity [21] was 78.5%, the Activity [22] was 117% and the Activity [23] was 104%. For the same compound, the Activity [24] was 94.5%, the Activity [25] was 97.5% and the Activity [26] was 95.6%.
